{"source": "patent US20260216176A1", "about": "“USE OF PCLX-001 OR PCLX-002 AS A RADIOSENSITIZER” (ACYLEX PHARMACEUTICALS INC., priority 2023, published 2026)", "test_system": "U251 glioblastoma cell line", "test": "Alamar Blue cell viability assay of radiosensitization (PCLX-001 pre-treatment plus radiation)", "assay_type": "cell-based, human", "description": "Cancer cell lines of human origin were cultivated in the suitable culture medium enriched with 10% fetal bovine serum (FBS) and a 1% mixture of penicillin-streptomycin. These were incubated at a temperature of 37° C. in a 5% CO2 humid environment. The cells were sub-cultured upon reaching a confluence of 80% with the aid of 0.25% trypsin-EDTA [Freshney, R. I., 2010. Culture of animal cells: a manual of basic technique and specialized applications. John Wiley & Sons].\nPCLX-001 was prepared at several concentrations for use as a radiosensitizing drug (serial dilutions from 1000 nM, including control 0 nM) in culture media. The cancer cells cultures were then treated with the aforementioned PCLX-001 concentrations and left for 24 h, 48 h, 72 h, and 96 h to allow for maximum pharmacodynamic effect. The cells were then plated into 96-well plates at 5000 cells per well and left to attach overnight while continuing to incubate in the drug/media cocktail.\nUpon completion of the PCLX-001 incubation period, a single radiation dose was administered to the cells using a preclinical irradiator. The quantity of radiation was decided based on the results from prior optimization tests [Hall, E. J., Giaccia, A. J., 2012. Radiobiology for the radiologist. Lippincott Williams & Wilkins.]. The radiation doses included 0, 2, and 4 Gy, which corresponds to the most common clinical radiation dose fractions used.\n72 hours post-radiation, an Alamar Blue Assay was conducted to determine cell viability. Alamar Blue dye was added to the media (10% v/v) and the plates were incubated at 37° C. for 4 hours. Using a fluorescence plate reader, fluorescence was measured at excitation/emission wavelengths of 560/590 nm. To quantify cell viability, the results were normalized to the data from untreated controls [Ahmed, S. A., et al., 1994].\nThe data were shown as mean±standard deviation (SD) gathered from three or more independent tests. A one-way ANOVA followed by a post hoc Tukey test was used for statistical analyses to find significant disparities between treatment groups. […]"}
{"smiles": "Cc1c(N[S+](=O)(O)c2c(Cl)cc(-c3ccnc(N4CCNCC4)c3)cc2Cl)c(CC(C)C)nn1C", "note": "[PCLX-001]", "values": [{"measurement": "dose-enhancement factor", "setting": "U251, below 25 nM", "value": "below 1.2"}, {"measurement": "toxicity of the drug itself versus radiotherapy effect", "setting": "above 150 nM", "value": "toxicity of the drug itself exceeds the effect of typical radiotherapy dose-per-fraction's effect"}, {"measurement": "increase of radiotherapy's effectiveness", "setting": "cancer cell line tested (human glioblastoma)", "value": "about 80%"}]}
